Data: US4622387A, “8-methionine calcitonin” (Armour Pharmaceutical Co., priority 1985, dated 1986)
Where a SMILES comes first, the peptide text is derived from it. Bridges are numbered along the chain shown (N, C = ends).

Experiments:
[1] = tested on: serum calcium concentration
Method: Biological Assay Of Calcitonin Analogs In Vivo
The biological potency of [8-methionine]salmon calcitonin was determined by comparing the reduction of serum calcium concentration which followed administration by graded doses of [Met^8 ]SCT and synthetic salmon calcitonin standard. Rats were divided into four groups of seven animals, and each group was assigned at random to a dose of standard or test solution. Low and high doses were chosen from the linear portion of the dose-response curve. For the salmon calcitonin standard, the values were 0.7 and 2.1 mcg. peptide/100 g. body weight (BW). This dose approximates 3 and 9 MU/100 g. BW. Peptides were given by subcutaneous injection (0.2 ml/100 g. BW) and blood was withdrawn 1 hour later for serum calcium determination. Sera are processed and analyzed within two hours of collection. Results were analyzed within two hours of collection.

[2] = tested on: serum calcium (hypocalcemic potency); conditions: Monikawa et al., Experientia 32(9), 1104-1106 (1976); cited from earlier work

Row | Compound | hypocalcemic potency [2] | also measured
1 | CSCC[C@H](NC(=O)[C@@H]1CSSC[C@H](N)C(=O)N[C@@H](CO)C(=O)N[C@@H](CC(N)=O)C(=O)N[C@@H](CC(C)C)C(=O)N[C@@H](CO)C(=O)N[C@@H]([C@@H](C)O)C(=O)N1)C(=O)N[C@@H](CC(C)C)C(=O)NCC(=O)N[C@@H](CCCCN)C(=O)N[C@@H](CC(C)C)C(=O)N[C@@H](CO)C(=O)N[C@@H](CCC(N)=O)C(=O)N[C@@H](CCC(=O)O)C(=O)N[C@@H](CC(C)C)C(=O)N[C@@H](Cc1c[nH]cn1)C(=O)N[C@@H](CCCCN)C(=O)N[C@@H](CC(C)C)C(=O)N[C@@H](CCC(N)=O)C(=O)N[C@H](C(=O)N[C@@H](Cc1ccc(O)cc1)C(=O)N1CCC[C@H]1C(=O)N[C@@H](CCCNC(=N)N)C(=O)N[C@H](C(=O)N[C@@H](CC(N)=O)C(=O)N[C@H](C(=O)NCC(=O)N[C@@H](CO)C(=O)NCC(=O)N[C@H](C(=O)N1CCC[C@H]1C(N)=O)[C@@H](C)O)[C@@H](C)O)[C@@H](C)O)[C@@H](C)O [[Met^8]SCT, [8-methionine]salmon calcitonin] (H-CSNLSTCMLGKLSQELHKLQTYPRTNTGSGTP-NH2; disulfide 1-7) |  | biological potency ([1]; rat, in vivo, sc): 5500 IU/mg
2 | CC(C)C[C@H](NC(=O)[C@H](CCCCN)NC(=O)CNC(=O)[C@H](CC(C)C)NC(=O)[C@@H](NC(=O)[C@@H]1CSSC[C@H](N)C(=O)N[C@@H](CO)C(=O)N[C@@H](CC(N)=O)C(=O)N[C@@H](CC(C)C)C(=O)N[C@@H](CO)C(=O)N[C@@H]([C@@H](C)O)C(=O)N1)C(C)C)C(=O)N[C@@H](CO)C(=O)N[C@@H](CCC(N)=O)C(=O)N[C@@H](CCC(=O)O)C(=O)N[C@@H](CC(C)C)C(=O)N[C@@H](Cc1c[nH]cn1)C(=O)N[C@@H](CCCCN)C(=O)N[C@@H](CC(C)C)C(=O)N[C@@H](CCC(N)=O)C(=O)N[C@H](C(=O)N[C@@H](Cc1ccc(O)cc1)C(=O)N1CCC[C@H]1C(=O)N[C@@H](CCCNC(=N)N)C(=O)N[C@H](C(=O)N[C@@H](CC(N)=O)C(=O)N[C@H](C(=O)NCC(=O)N[C@@H](CO)C(=O)NCC(=O)N[C@H](C(=O)N1CCC[C@H]1C(N)=O)[C@@H](C)O)[C@@H](C)O)[C@@H](C)O)[C@@H](C)O [standard salmon calcitonin, Salmon calcitonin] |  | potency content of the standard ([1]; standard salmon calcitonin, independently determined): greater than 4,000 IU/mg
3 | (1,7-α-L-aminosuberic acid)eel calcitonin | about 3400 Iu/mg | 
4 | eel calcitonin [synthetic eel calcitonin] | around 4300 Iu/mg | 
